# Results as given in US20230301981A1, “TLR7/8 ANTAGONISTS AND USES THEREOF” (Merck Patent GmbH, priority 2020, published 2023).
# Experiments:
# TLR7 = target: T1, TLR7 (Homo sapiens, UniProt Q9NYK1); assay: Human whole blood assay, TLR7-specific agonist stimulation, IL-6 by AlphaLISA; format: cell-based; design: Human whole blood from healthy donors was drawn into EDTA Vacutainer tubes; endogenous in cells; host or cells: human whole blood (healthy donors); conditions: TLR7-specific agonist 3 µM, IL-6 readout, read-out: IC50 TLR7 (IL6 READOUT) HUMAN WHOLE BLOOD (N=2)
# T1 sequence (Q9NYK1 27-1049): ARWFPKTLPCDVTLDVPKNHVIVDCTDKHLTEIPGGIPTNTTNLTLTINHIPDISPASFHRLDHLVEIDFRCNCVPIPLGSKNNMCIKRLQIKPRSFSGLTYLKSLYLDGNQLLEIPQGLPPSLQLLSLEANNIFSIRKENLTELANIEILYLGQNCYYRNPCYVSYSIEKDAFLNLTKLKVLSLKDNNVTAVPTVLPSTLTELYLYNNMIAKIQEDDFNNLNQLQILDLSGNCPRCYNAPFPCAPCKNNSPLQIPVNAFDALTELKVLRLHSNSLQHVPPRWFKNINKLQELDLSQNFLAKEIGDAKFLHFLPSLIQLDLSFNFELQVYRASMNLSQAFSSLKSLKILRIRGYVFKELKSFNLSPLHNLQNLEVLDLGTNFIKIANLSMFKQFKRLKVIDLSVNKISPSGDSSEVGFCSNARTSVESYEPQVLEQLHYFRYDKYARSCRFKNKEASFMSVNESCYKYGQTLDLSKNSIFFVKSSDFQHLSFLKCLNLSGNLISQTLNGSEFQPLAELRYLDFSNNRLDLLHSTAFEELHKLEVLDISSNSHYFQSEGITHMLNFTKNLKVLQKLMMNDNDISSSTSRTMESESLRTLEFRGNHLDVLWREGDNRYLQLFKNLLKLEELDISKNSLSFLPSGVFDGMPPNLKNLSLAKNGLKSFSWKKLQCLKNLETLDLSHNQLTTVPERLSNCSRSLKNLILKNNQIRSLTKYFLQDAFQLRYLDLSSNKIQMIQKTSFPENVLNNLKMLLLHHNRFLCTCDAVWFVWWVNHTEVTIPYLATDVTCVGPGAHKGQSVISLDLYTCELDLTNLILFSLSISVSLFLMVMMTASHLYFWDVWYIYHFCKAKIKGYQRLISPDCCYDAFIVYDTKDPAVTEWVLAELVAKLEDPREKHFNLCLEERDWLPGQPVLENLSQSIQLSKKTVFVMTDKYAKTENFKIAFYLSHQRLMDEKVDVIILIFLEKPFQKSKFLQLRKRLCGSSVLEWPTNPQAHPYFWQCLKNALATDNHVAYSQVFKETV
# Protocol: (§1) Human whole blood from healthy donors was drawn into EDTA Vacutainer tubes and the experiment started within 2 hr of draw. Four parts blood was diluted with 1 part PBS. 10 mM compounds stock solutions were serially diluted 1:3 eleven times in DMSO. Each serial dilution was further diluted by transferring 3 µl to 100 µl RPMI. For the stimulation only and no stimulation controls, 3 µl 100% DMSO was transferred to 100 µl RPMI. Then, 5 µl of each of these dilutions were transferred to 96-well tissue culture grade U-bottom plate in triplicate for each ligand and each donor. Final inhibitor concentrations were 10, 3.3, 1.1, 0.37, 0.12, 0.04, 0.014, 0.0046, 0.0015, 0.00051, 0.00017, 0.00006 µM. No inhibitor (stimulation only) controls were included in triplicate for each donor. Diluted blood was dispensed on top of inhibitor dilutions at 150 µl/well. Plates were incubated at 37° C. 5% CO2 for 30 min. For TLR7 stimulation, 10 mM stock of a TLR7-specific small molecule agonist in DMSO was diluted to 90 µM in RPMI and 5 µl were added to each inhibitor dilution for each donor. Final concentration was 3 µM. For TLR8 stimulation, 10 mM stock of a TLR8-specific small molecule agonist in DMSO was diluted to 15 µM in RPMI and 5 µl were added to each inhibitor dilution for each donor. Final concentration was 0.5 µM. No stimulation controls were included in triplicate for each donor. Plates were incubated at 37° C. 5% CO2 overnight. Next day, plasma was collected and IL-6 was measured by AlphaLISA (PerkinElmer AL223 according to manufacturer’s protocol.
# TLR8 = target: T2, TLR8 (Homo sapiens, UniProt Q9NR97); assay: Human whole blood assay, TLR8-specific agonist stimulation, IL-6 by AlphaLISA; format: cell-based; conditions: TLR8-specific agonist 0.5 µM, IL-6 readout, read-out: IC50 TLR8 (IL6 READOUT) HUMAN WHOLE BLOOD (N=2)
# T2 construct: Human whole blood from healthy donors was drawn into EDTA Vacutainer tubes; endogenous in cells; host or cells: human whole blood (healthy donors)
# T2 sequence (Q9NR97 27-1041): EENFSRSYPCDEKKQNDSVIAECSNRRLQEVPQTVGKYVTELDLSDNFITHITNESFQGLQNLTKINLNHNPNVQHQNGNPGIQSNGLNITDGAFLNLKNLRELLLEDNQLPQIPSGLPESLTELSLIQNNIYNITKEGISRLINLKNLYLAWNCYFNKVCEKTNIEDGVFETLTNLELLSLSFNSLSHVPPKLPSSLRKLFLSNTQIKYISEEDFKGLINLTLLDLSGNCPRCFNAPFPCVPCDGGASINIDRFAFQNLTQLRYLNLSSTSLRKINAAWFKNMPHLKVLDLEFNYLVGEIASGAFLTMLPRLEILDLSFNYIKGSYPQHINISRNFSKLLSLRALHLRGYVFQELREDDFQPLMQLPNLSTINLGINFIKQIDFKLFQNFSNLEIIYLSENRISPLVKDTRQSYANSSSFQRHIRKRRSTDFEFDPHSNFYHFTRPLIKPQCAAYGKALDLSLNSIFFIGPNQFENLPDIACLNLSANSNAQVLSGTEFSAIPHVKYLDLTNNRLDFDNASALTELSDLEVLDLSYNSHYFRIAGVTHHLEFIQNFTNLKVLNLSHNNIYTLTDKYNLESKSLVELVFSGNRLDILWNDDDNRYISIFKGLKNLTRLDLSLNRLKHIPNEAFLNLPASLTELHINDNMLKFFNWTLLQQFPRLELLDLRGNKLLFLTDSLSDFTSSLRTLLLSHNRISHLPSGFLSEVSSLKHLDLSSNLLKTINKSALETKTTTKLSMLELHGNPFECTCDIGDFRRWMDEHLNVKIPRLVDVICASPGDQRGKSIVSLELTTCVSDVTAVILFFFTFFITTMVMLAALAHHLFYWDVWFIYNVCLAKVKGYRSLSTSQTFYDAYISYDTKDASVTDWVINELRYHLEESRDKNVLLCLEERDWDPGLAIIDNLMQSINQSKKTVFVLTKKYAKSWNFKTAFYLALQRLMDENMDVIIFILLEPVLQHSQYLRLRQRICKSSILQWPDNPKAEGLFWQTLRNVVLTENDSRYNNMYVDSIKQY
# Protocol: as §1
Structure (SMILES),IC50 (TLR7),IC50 (TLR8)
"CCN(CCO)CCCC(C)Nc1ccnc2cc(Cl)ccc12 (stereo not shown) [HYDROXY-CHLOROQUINE HCQ, hydroxychloroquine]",960 nM,1240 nM
"COc1ccc2nc3cc(Cl)ccc3c(Nc3cc(CN4CCCC4)c(O)c(CN4CCCC4)c3)c2n1 [Compound 1, Pyronaridine]",210 nM,610 nM
